From patent US20100204263A1, “METHOD OF TREATING MULTIDRUG RESISTANT CANCERS” (priority 2007, published 2010)
Read-outs that look alike come from different tables or passages of the source.

Assays:
[1] = test system: HL60 (human promyelocytic leukemia) cells; test: WST-1 cell proliferation assay, HL60; assay type: cell-based
Experimental: (§1) The HL60NCR resistant cell line has been characterized with over-expression of the multidrug resistant protein (MDR; p-glycoprotein). The over-expression ratio (level of MDR in resistant cell line over level of MDR in the parental cell line) is 8 fold with a 10 fold increase in pgp function. Pgp surface expression was measured by flow cytometry with the MRK16 antibody and Pgp function with the generic substrate, Rh123.
(§2) WST-1 is a water-soluble tetrazolium salt that can be used for cell proliferation or cell viability assays. The rate of WST-1 cleavage by mitochondrial dehydrogenases correlates with the number of viable cells in the culture. WST-1 is added directly to the cells ( 1/10th of the culture volume) and absorbance at 450 nm can be measured using an ELISA plate reader following a short incubation at 37° C.

[2] = test system: secondary AML patient sample cells; test: Drug transport (CsA modulation of uptake) in secondary AML patient cells; assay type: cell-based, human; settings: for increase of uptake by Cyclosporin A, mean value: 22 secondary AML samples; for CsA Modulation of Uptake: D-value; for number of patient samples with uptake increased by ≧10% by Cyclosporin A: of 22 secondary AML samples
Experimental: The expression and function of Pgp, MRP-1 and BCRP was measured in cells collected from patients with secondary AML. Pgp, MRP-1 and BCRP expression was measured by flow cytometry with the MRK16, MRPm6 and BXP21 antibodies, and function by modulation of uptake of the fluorescent substrates DiOC2(3), rhodamine-123 and pheophorbide A by PSC-833, MK571 and FTC, respectively, all measured by the Kolmogorov-Smirnov statistic, generating D-values.

[3] = test system: pretreatment secondary AML patient cells; test: Amonafide and daunorubicin efflux in cryopreserved cells of patients treated with amonafide+cytarabine; assay type: cell-based, human; settings: cells from 15 patients treated with amonafide+cytarabine
Experimental: Cryopreserved cells were tested for viability and samples with viabilities less than 40% were considered inevaluable and discarded.
To measure drug uptake, the substrates were incubated with cells in medium containing each drug alone, or in combination with the modulator at the desired final concentrations. Cells were then washed and resuspended in PBS, and placed on ice. Drug-associated fluorescence was measured by flow cytometry using a FacScan flow cytometer (Becton Dickinson Immunocytometry Systems, San Jose, Calif.) equipped in standard fashion with an Argon laser for 488 nm excitation and a 585/42 band-pass filter (FL2) or a 670 long-pass (FL3) filter for emission collection. Data were analyzed with WinList software (Verity Software House, Topsham, Me.).

[4] = test system: HL60/VCR (HL60/MDR), a cell line selected for resistance to vincristine; test: WST-1 cell proliferation assay, HL60/VCR; settings: for IC50: Homo sapiens, HL60/VCR, read-out: IC50 HL60/MDR; for Fold Change in IC50: HL60/MDR vs HL60
Experimental: as §1, §2

[5] = test system: 8226/MR20, a cell line selected for resistance to mitoxantrone (BCRP); test: WST-1 cell proliferation assay, 8226/MR20; settings: 8226/MR20 vs 8226
Experimental: The 8226/MR20 resistant cell line has been characterized with over-expression of the multidrug resistant protein (BCRP).
BCRP surface expression was measured by flow cytometry with the BXP21 antibody.
as §2

[6] = test system: K562 cells (Pgp negative); test: Functional efflux assay (DiOC2), K562; assay type: cell-based, human; settings: K562, flow cytometry
Experimental: The cells were washed with PBS and resuspended in medium. An aliquot was taken for cytometric quantitation of baseline dye uptake. The remaining samples were incubated again either with or without CSA and resuspended in fresh, chilled medium in order to assess dye efflux also by flow cytometric analysis. Functional expression analyses of Pgp were performed on a BD FACSCalibur flow cytometer (Franklin Lakes, N.J.). Cellular amonafide content was measured on the Cytopeia Influx flow cytometer (Seattle, Wash.). Data analysis was performed using the Dako Cytomation Summit software, version 4.0 (Fort Collins, Colo.). […] Differential Pgp staining of anti-Pgp treated cells was compared to that of control cells counted with the same number of gated events. […] These analyses were performed using the NCSS 2007 software (Kaysville, Utah). This approach addresses the maximum difference between two empirical distribution functions.

Pgp [7] = biological target: T1, Pgp (Homo sapiens, UniProt P08183); settings: human, Caco-2
T1 sequence (P08183 whole entry): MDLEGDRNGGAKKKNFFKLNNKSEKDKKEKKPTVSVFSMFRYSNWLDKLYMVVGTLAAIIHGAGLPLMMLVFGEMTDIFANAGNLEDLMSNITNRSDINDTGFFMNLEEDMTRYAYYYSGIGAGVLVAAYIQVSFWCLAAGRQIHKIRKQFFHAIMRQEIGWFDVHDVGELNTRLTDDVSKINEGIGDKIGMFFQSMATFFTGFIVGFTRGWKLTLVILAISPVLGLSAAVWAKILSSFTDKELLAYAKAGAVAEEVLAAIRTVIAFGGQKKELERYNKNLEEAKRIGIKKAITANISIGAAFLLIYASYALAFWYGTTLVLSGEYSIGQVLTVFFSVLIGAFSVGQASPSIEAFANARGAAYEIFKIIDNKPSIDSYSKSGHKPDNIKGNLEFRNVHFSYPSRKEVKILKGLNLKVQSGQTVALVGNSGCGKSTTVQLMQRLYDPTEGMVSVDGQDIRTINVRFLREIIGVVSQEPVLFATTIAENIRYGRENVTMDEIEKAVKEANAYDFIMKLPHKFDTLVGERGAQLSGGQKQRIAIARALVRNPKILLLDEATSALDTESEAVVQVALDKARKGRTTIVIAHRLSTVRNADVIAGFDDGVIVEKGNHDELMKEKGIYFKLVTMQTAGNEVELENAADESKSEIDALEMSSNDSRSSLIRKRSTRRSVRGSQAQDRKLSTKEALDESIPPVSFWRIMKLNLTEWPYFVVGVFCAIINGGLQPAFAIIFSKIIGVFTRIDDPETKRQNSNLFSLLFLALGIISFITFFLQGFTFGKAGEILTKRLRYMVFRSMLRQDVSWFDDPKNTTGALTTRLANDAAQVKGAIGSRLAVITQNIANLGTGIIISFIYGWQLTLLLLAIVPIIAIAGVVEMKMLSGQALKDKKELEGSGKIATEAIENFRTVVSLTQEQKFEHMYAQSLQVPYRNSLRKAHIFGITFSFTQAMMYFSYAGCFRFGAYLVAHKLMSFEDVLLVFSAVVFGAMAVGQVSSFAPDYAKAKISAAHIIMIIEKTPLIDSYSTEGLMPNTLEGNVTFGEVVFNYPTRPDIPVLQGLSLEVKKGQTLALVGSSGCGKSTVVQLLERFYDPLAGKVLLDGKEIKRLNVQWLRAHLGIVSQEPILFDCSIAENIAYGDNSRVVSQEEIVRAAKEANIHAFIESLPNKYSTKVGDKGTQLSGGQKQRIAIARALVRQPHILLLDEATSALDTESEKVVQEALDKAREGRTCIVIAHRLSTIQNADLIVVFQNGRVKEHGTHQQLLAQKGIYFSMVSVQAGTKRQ
From the text: (§3) Both the Caco-2 and MDR1-MDCK cells were used for this model.

Pgp [8] = biological target: T1, Pgp; settings: human, MDCK-MDR1
From the text: MDR1-MDCK are Madin Darby Canine Kidney cells transfected with the human multi-drug resistance gene. Confluent monolayers made from these cells can be used to access a test compound's potential role as a P-gp substrate. The assay set up is similar to the CaCo-2 assay.
as §3

[9] = test system: IGROV1-T8, a cell line selected for resistance to topotecan (increased BCRP expression); settings: T8 resistant line vs IGROV1
Experimental: (§4) The T8 resistant cell line has been characterized with over-expression of the multidrug resistant protein BCRP (breast cancer resistance protein). Topotecan, which is a known substrate for BCRP, was used as a control.
(§5) Sulforhodamine-B (SRB) assay is performed to assess cell survival. SRB is a water-soluble dye that binds to the basic amino acids of the cellular proteins. Thus, colorimetric measurement of the bound dye provides an estimate of the total protein mass that is related to the cell number. The color can then be quantified using a simple colorimetric assay. The results can be read on a multiwell scanning spectrophotometer (ELISA reader).

[10] = test system: IGROV1-T8, a cell line selected for resistance to topotecan (increased BCRP expression); test: cells; settings: Homo sapiens, T8
Experimental: as §4, §5

[11] = test system: IGROV1 (human ovarian) cell line; test: SRB cell proliferation assay, IGROV1; assay type: cell-based; settings: read-out: IC50
Experimental: as §4, §5

[12] = HL-60, wild-type HL60, WST-1, read-out: IC50 HL60

| Compound | increase of uptake by Cyclosporin A, mean value [2] [%] | CsA Modulation of Uptake ([2]; Pt 1) | CsA Modulation of Uptake ([2]; Pt 2) | CsA Modulation of Uptake ([2]; Pt 3) | CsA Modulation of Uptake ([2]; Pt 4) | CsA Modulation of Uptake ([2]; Pt 5) | CsA Modulation of Uptake ([2]; Pt 6) | CsA Modulation of Uptake ([2]; Pt 7) | CsA Modulation of Uptake ([2]; Pt 8) | CsA Modulation of Uptake ([2]; Pt 9) | CsA Modulation of Uptake ([2]; Pt 10) | CsA Modulation of Uptake ([2]; Pt 11) | CsA Modulation of Uptake ([2]; Pt 12) | CsA Modulation of Uptake ([2]; Pt 13) | CsA Modulation of Uptake ([2]; Pt 14) | CsA Modulation of Uptake ([2]; Pt 15) | CsA Modulation of Uptake ([2]; Pt 16) | CsA Modulation of Uptake ([2]; Pt 17) | CsA Modulation of Uptake ([2]; Pt 18) | CsA Modulation of Uptake ([2]; Pt 19) | other results |
| --- | --- | --- | --- | --- | --- | --- | --- | --- | --- | --- | --- | --- | --- | --- | --- | --- | --- | --- | --- | --- | --- |
| COc1cccc2c1C(=O)c1c(O)c3c(c(O)c1C2=O)C[C@@](O)(C(C)=O)C[C@@H]3O[C@H]1C[C@H](N)[C@H](O)[C@H](C)O1 [Daunorubicin, daunorubicin] | 19.7 | 0.2 | 0.14 | 0.27 | 0.23 | 0 | 0.41 | 0.47 | 0.31 | 0.08 | 0.08 | 0.03 | 0.37 | 0.16 | 0.29 | 0.07 | 0.08 | 0.24 | 0.03 | 0.04 | IC50 ([1]; HL-60, read-out: IC50 HL60): 15 nM; CsA Modulation of Uptake ([2]; Pt 20): 0.35; CsA Modulation of Uptake ([2]; Pt 21): 0.12; CsA Modulation of Uptake ([2]; Pt 22): 0.43; number of patient samples with uptake increased by ≧10% by Cyclosporin A [2]: 16 patient samples; drug efflux in relation to clinical response (CR vs non-CR) [3]: negatively correlated with response; loss of potency in the Pgp+ line ([4]; HL60/VCR vs HL60): 2 log units; IC50 [4]: 92 nM; loss of potency in the BCRP line [5]: ½ |
| CCN1/C(=C/C=C/c2oc3ccccc3[n+]2CC)Oc2ccccc21.[I-] [DiOC2] | – | – | – | – | – | – | – | – | – | – | – | – | – | – | – | – | – | – | – | – | DiOC2 accumulation [6]: accumulated in Pgp negative K562 cells |
| C[C@H]1O[C@@H](O[C@H]2[C@@H](O)C[C@H](O[C@H]3[C@@H](O)C[C@H](O[C@H]4CC[C@@]5(C)[C@H](CC[C@@H]6[C@@H]5C[C@@H](O)[C@]5(C)[C@@H](C7=CC(=O)OC7)CC[C@]65O)C4)O[C@@H]3C)O[C@@H]2C)C[C@H](O)[C@@H]1O [Digoxin, digoxin] | – | – | – | – | – | – | – | – | – | – | – | – | – | – | – | – | – | – | – | – | Digoxin Efflux (efflux/influx ratio), Caco-2 (Pgp [7]): 10.6 ± 1.4; Digoxin Efflux (efflux/influx ratio), MDR1-MDCK (Pgp [8]): 70 + 11 |
| COc1cccc2c1C(=O)c1c(O)c3c(c(O)c1C2=O)C[C@@](O)(C(=O)CO)C[C@@H]3O[C@H]1C[C@H](N)[C@H](O)[C@H](C)O1 [Doxorubicin, doxorubicin] | – | – | – | – | – | – | – | – | – | – | – | – | – | – | – | – | – | – | – | – | IC50 [1, 12]: 33 nM; Fold Change in IC50 [4]: 4.87; IC50 [4]: 161 nM |
| CC(=O)[C@]1(O)Cc2c(O)c3c(c(O)c2[C@@H](O[C@H]2C[C@H](N)[C@H](O)[C@H](C)O2)C1)C(=O)c1ccccc1C3=O [Idarubicin, idarubicin] | 7 | 0 | 0.23 | 0.22 | 0.17 | 0 | 0.21 | 0.21 | 0.16 | 0.18 | 0.02 | 0.05 | 0.08 | 0.06 | 0.28 | 0.16 | 0.03 | 0 | 0 | 0.17 | CsA Modulation of Uptake ([2]; Pt 20): 0.23; CsA Modulation of Uptake ([2]; Pt 21): 0.19; CsA Modulation of Uptake ([2]; Pt 22): 0.31; number of patient samples with uptake increased by ≧10% by Cyclosporin A [2]: 12 patient samples |
| O=C1c2c(O)ccc(O)c2C(=O)c2c(NCCNCCO)ccc(NCCNCCO)c21 [Mitoxantrone, mitoxantrone] | – | – | – | – | – | – | – | – | – | – | – | – | – | – | – | – | – | – | – | – | IC50 [1, 12]: 8 nM; Fold Change in IC50 [4]: 390.7; IC50 [4]: 3110 nM |
| CO[C@@H]1[C@H](N(C)C(=O)c2ccccc2)C[C@H]2O[C@]1(C)n1c3ccccc3c3c4c(c5c6ccccc6n2c5c31)C(=O)NC4 [PKC412] | – | – | – | – | – | – | – | – | – | – | – | – | – | – | – | – | – | – | – | – | Digoxin Efflux (efflux/influx ratio), Caco-2 (Pgp [7]): 1.8 ± 1.3; Digoxin Efflux (efflux/influx ratio), MDR1-MDCK (Pgp [8]): 6.4 ± 0.8 |
| CC[C@@]1(O)C(=O)OCc2c1cc1n(c2=O)Cc2cc3c(CN(C)C)c(O)ccc3nc2-1 [TPT, Topotecan] | – | – | – | – | – | – | – | – | – | – | – | – | – | – | – | – | – | – | – | – | resistance of T8 line to Topotecan relative to Amonafide [9]: 10 fold; IC50 ([10]; experiment (1)): 1100 nM; IC50 ([10]; experiment (2)): 1090 nM; IC50 ([11]; IGROV-1, IGROV1, experiment (1)): 36 nM; IC50 ([11]; IGROV-1, IGROV1, experiment (2)): 73.9 nM |
| amonafide L-malate | −2.5 | 0 | 0.09 | 0 | 0.02 | 0 | 0.1 | 0.31 | 0.07 | 0 | 0.18 | 0 | 0 | 0.03 | 0.05 | 0 | 0 | 0 | 0 | 0 | CsA Modulation of Uptake ([2]; Pt 20): 0.15; CsA Modulation of Uptake ([2]; Pt 21): 0.43; CsA Modulation of Uptake ([2]; Pt 22): 0; substrate status for the MDR proteins expressed in AML cells ([2]; in relation to other topoisomerase 2 inhibitors): poor substrate; number of patient samples with uptake increased by ≧10% by Cyclosporin A [2]: 5 patient samples |
